The values below come from patent EP0324328B1, “Use of the N-n-butyl derivative of desoxynojirimycin in the manufacture of a medicament inhibiting HIV-Virus” (priority 1987, dated 1989).

The subject of one test is HIV-1. Description: Time to develop CPE after transfer of HIV-1 infected cells to drug-free medium. Format: cell-based. As to the method:
FIG. 2 is a schematic outline of the test procedure used to determine the relative proportion of HIV-infected cells in cultures containing 0.1 mg/ml of the inhibitory test compound. At various times aliquots of the infected cell suspensions were transferred to inhibitor-free medium and the time taken for the cells to develop cytopathic effect (CPE) was recorded.
After 55 days of culture (O) in the presence of drug no virus appeared during 100 additional days of culture in the absence of drug (after removal of drug).
To determine if there was a gradual reduction of HIV-infected cells in cultures maintained with BuDNJ, aliquots of cells infected with 10^4 TCID of HIV-1 and grown in the presence of 0.1 mg/ml BuDNJ for varying lengths of time were transferred to separate wells and grown in drug-free medium as indicated in […]. The cultures were then monitored for development of CPE, indicative of active HIV replication. The times for the appearance of an advanced CPE were recorded. […]
In order to determine whether or not there was an actual reduction in HIV-infected cells in the presence of BuDNJ, aliquots of the infected cell suspension, grown for varying times in the presence or drug, where transferred to drug-free medium as outlined in Figure 2. The cultures were then monitored for the development of CPE and giant cell formation (indicative of active HIV replication). […]

In another test the target is T1, glucosidase I (Bos taurus, UniProt A0A3Q1M9D9).
T1 sequence (A0A3Q1M9D9 1-839): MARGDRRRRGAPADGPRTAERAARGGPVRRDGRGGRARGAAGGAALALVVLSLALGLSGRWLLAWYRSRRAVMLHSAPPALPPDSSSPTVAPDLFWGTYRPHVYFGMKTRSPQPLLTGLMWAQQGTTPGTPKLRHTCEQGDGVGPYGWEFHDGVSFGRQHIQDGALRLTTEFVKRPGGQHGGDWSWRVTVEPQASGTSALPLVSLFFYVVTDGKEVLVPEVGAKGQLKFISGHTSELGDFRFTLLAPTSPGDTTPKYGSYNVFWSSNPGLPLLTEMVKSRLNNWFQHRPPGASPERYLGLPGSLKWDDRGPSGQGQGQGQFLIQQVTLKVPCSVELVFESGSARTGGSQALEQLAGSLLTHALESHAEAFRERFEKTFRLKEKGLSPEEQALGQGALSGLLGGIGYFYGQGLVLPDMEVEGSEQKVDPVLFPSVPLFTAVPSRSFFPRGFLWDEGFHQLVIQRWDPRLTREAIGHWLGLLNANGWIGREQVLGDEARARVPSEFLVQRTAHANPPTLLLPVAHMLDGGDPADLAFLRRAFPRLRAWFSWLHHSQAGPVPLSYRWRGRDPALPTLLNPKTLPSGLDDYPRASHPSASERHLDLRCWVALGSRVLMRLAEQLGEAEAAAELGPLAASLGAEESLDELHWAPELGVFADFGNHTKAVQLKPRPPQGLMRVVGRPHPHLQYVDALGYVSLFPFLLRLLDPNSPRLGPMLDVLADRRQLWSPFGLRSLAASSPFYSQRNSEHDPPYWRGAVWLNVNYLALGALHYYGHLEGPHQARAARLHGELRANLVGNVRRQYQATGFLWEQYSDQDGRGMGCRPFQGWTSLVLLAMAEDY
Conditions: reported by Schweden et al., Arch. Biochem. Biophys. 248(1), 335-340 (1986); cited from earlier work.

In test [1] the test system is B16-F10 murine melanoma cells. Nature of the test: Incorporation of radiolabeled galactose, mannose, glucose and thymidine into cells. It is filed as cell-based. As to conditions: result in words; for galactose incorporation into the cells: radiolabeled galactose; for glucose utilization/inhibition: radiolabeled glucose; for mannose utilization: radiolabeled mannose.
A further test has as its system HIV. Nature of the test: Inhibition of HIV-associated cytopathic effect (CPE) in T-45 cells. It is filed as cell-based. As to conditions: HIV infected T-45 cells, various concentrations (Fig. 3); result in words. As for the experimental part:
FIG. 3 is a graphical representation in which the inhibition of HIV associated CPE (―% CPE) reduction) and test compound-associated cytotoxicity (---% cell death) is plotted against the media concentration in mg/ml of several test compounds (drugs). The cell viability data was determined for non-HIV infected cells. The test compounds were the N-methyl-, N-ethyl-, and N-butyl derivatives of deoxynojirimycin (DNJ), castanospermine (Cast), N-(5-carboxymethyl-1-pentyl)-1,5-imino-L-fucitol (LFT) and 1,4-dideoxy-1,4-imino-L-arabinitol (LAB).
After a suitable period of incubation, the cultures are scored for the presence of so-called syncytial cells (giant cells). Typical examples of such a test for the evaluation of inhibitors of HIV have been disclosed by Fung et al., Bio/Technology 5, 940-946 (1987); Tyms et al., Lancet, October 31, 1987, pp. 1025-1026; Gruters et al., Nature 330, 74-77 (1987); and Walker et al., Proc. Natl. Acad. Sci. USA 84, 8120-8124 (1987).
The efficacy of the test compounds used in this example was assessed as follows: 0.2 ml of culture medium containing 10^4 T-45 cells were transferred into each well of a 96-well flat-bottomed tissue-culture plastic plate and the cells were allowed to settle at 37°C (see Figure 1). After 4 hours the media were aspirated and replaced with media which contained the test compound. Following overnight incubation the media was aspirated and 10^4 TCID of virus (HIV-1 or HIV-2) was added to each well. Incubation was continued at 37°C in 5% CO2 for 1 hour. Thereafter, growth media containing the various compounds were added and incubation at 37°C was continued. On the fourth day the cell suspensions from each well were split and seeded into two new wells and 0.2 ml of fresh media with compounds was added. This was repeated on the seventh day. Cells were examined by microscopy during days 1 to 10 for the presence of syncytia, growth rate and the appearance of the cytopathic effect (CPE) (giant cells, pycnotic nuclei, loss of refractility). CPE (100%) was defined as no round, refractile, uniform cells remaining; only giant, ballooned pyknotic cells were present. The viability of HIV infected cultures was determined by a rough count/estimate of cells which underwent CPE in relation to round refractile uniform (normal) cells in a given culture. Cells in wells which were incubated with compounds which appeared to inhibit or reduce HIV replication and in which there was marked cell proliferation were either transferred to larger wells (of a 24-well plate) or divided in order to maintain an approximate constant cell density to promote continuous cell division.
A general note: Damage to the host cells serves as the signal in cytopathic effect assays.

Structures are written as SMILES.

On to `CCCCN1C[C@H](O)[C@@H](O)[C@H](O)[C@H]1CO` [BuDNJ, N-n-butyl-deoxynojirimycin], for which the “days before CPE expression” value in the test on HIV-1 (0.1 mg/ml drug for 55 days of culture, then culture in the absence of drug) is more than 100 days. For the same molecule, the “proportion of infected cells in the cultures” value in the test on HIV-1 (prolonged exposure, 0.1 mg/ml, result in words) was “reduced the proportion of infected cells in the cultures”. The “glucosidase I inhibitory activity” value at glucosidase I was “virtually identical”. Besides, in test [1], the “galactose incorporation into the cells” value was “substantially inhibited galactose incorporation into the cells at 1.0 mM or less”, the glucose utilization/inhibition entry is given as “little or no effect”, the mannose utilization entry is on record as “inhibited mannose utilization” and the “^3H-Thymidine uptake into the cells” value is “not affected by N-butyl-DNJ up to 2.0 mM”. Moreover, in the test with HIV, the “effect on CPE formation” value is recorded as “completely prevented CPE in the HIV infected cells at all concentrations tested”.
With `CN1C[C@H](O)[C@@H](O)[C@H](O)[C@H]1CO` [MeDNJ, N-methyl-deoxynojirimycin], on glucosidase I, the “glucosidase I inhibitory activity” value is “virtually identical”. Moreover, in test [1], the “galactose incorporation into the cells” value was “only slightly inhibitory”; the glucose utilization/inhibition result is on record as “inverted dose-response curve”; the mannose utilization result is listed as “either stimulated incorporation or, conservatively, had no effect”; the “^3H-Thymidine uptake into the cells” value is “inhibited incorporation at 1.0 mM”. Besides, the “effect on CPE formation” value in the test on HIV is listed as “bell shaped dose-dependence”.
